The numbers were not newly measured in US12582661B2, “Synthesis and application of class of respiratory syncytial virus inhibitors” (SHANGHAI ARK BIOPHARMACEUTICAL CO., LTD., priority 2020, dated 2026), which cites them from elsewhere.

This series deals with RSV. The following applies: oral; cited from earlier work.

Take `Cc1cn2nc([C@@H]3CCCCN3C(=O)c3cc(Cl)ccc3NS(C)(=O)=O)cc2nc1N1CC[C@H](N)C1` [GS-5806]: the “viral load, mucus quantity and symptom scores” value was “decrease viral load, mucus quantity and symptom scores”.
